Laboratory results reported in ChEMBL document CHEMBL1201862, “PubChem BioAssay data set” (2004).
The source made the active and inactive calls.

Assays:
[1] = biological target: T1, Streptokinase A (Streptococcus pyogenes serotype M1, UniProt P10520); assay: viability-normalized secreted streptokinase activity reduction – plasminogen activation absorbance, OD405, dose response (AID 1914); assay type: functional, Streptococcus pyogenes M1 GAS;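 note: secreted streptokinase activity via plasminogen activation per viability signal from cell pellet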
T1 sequence (P10520 whole entry): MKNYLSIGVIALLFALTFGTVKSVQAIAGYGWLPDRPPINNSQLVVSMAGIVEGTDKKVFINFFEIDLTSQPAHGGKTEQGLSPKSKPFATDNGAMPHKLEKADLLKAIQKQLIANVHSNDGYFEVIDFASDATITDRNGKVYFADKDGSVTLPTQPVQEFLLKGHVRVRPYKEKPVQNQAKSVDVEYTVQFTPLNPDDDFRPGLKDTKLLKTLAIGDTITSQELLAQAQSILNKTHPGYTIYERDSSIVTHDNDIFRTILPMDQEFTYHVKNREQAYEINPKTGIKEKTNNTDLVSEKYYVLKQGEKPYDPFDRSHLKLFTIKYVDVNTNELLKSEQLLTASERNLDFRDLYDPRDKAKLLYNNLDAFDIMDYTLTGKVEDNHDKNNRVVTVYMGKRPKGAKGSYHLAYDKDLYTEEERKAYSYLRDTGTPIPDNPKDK

[2] = biological target: T2, Polyadenylate-binding protein 1 (Homo sapiens, UniProt P11940); assay: MLLE binding blockers, Cy5 peptide tracer – biochemical, fluorescence polarization, Cy5-PAM2 peptide, secondary, miRNA deadenylation inhibitor project, dose response (AID 602260); assay type: functional; details: read-out: IC50_Mean
T2 sequence (P11940 whole entry, the tested form may be a part): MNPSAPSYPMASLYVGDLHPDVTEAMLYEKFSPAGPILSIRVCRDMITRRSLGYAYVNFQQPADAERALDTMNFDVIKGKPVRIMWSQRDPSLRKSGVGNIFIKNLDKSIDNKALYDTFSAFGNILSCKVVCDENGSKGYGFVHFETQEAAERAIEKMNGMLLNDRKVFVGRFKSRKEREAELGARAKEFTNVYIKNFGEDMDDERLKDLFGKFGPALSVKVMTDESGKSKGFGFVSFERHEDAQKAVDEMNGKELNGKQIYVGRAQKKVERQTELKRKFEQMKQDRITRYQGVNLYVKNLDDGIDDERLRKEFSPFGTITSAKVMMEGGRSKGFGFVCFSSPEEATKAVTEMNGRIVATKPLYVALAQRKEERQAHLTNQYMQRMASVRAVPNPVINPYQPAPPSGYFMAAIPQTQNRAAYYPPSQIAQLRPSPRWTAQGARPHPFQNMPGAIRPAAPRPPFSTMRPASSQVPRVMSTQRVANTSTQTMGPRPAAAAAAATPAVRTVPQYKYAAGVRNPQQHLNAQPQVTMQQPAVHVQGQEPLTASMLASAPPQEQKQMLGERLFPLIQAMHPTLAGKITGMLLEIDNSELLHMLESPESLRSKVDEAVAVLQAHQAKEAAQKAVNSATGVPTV

[3] = biological target: T2, Polyadenylate-binding protein 1; assay: MLLE domain peptide-binding blockers, IC50 – biochemical, fluorescence polarization, FITC-PAM2 peptide, dose response (AID 602259); assay type: functional; details: read-out: IC50_Mean
[4] = biological target: T3, Calpain-2 catalytic subunit (Sus scrofa, UniProt P43367); assay: m-calpain protease blockers, concentration series – biochemical, fluorogenic peptide substrate, dose response (AID 1420); assay type: functional
T3 sequence (P43367 whole entry): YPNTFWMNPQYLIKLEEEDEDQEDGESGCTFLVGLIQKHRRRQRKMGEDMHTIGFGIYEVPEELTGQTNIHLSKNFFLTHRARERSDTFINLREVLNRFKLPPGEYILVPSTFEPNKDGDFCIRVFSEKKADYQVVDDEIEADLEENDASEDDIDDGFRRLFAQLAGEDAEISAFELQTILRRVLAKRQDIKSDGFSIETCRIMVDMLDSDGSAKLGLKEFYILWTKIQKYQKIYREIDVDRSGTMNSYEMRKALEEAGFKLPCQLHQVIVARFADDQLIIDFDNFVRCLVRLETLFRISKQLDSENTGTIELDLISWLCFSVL

[5] = biological target: FAD-linked sulfhydryl oxidase ALR (Homo sapiens, UniProt P55789); assay: ALR-catalysed DTT oxidation blockers – biochemical, H2O2 detection, luminescence, cherry-pick, dose response (AID 493248)
Chain of FAD-linked sulfhydryl oxidase ALR (P55789 whole entry): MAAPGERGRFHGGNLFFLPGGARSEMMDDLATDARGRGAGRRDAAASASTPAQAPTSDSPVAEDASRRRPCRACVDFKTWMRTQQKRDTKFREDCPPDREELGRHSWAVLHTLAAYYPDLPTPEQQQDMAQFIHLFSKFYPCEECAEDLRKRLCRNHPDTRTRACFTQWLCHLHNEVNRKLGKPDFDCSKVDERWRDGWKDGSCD

[6] = viability of PTEN-deleted HCT116 cells – cell-based, HCT116 PTEN knockout, dose response (AID 1047); assay type: functional;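 note: HCT116 colon tumor cells with PTEN knocked out; cells exposed to compound for 60 hours before readout; potency for loss of cell viability measured by luminescence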
[7] = viability of HCT116 lacking mutant beta-catenin – cell-based, human colon tumor, dose response (AID 1045); assay type: functional;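 note: HCT116 colon tumor cells with beta catenin knocked out; cells exposed to compound for 60 hours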
[8] = biological target: Large T antigen (Simian virus 40, UniProt P03070); assay type: functional, Betapolyomavirus macacae;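 note: Confirmatory-stage PubChem screen for compounds that inhibit SV40 T antigen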
Chain of Large T antigen (P03070 whole entry): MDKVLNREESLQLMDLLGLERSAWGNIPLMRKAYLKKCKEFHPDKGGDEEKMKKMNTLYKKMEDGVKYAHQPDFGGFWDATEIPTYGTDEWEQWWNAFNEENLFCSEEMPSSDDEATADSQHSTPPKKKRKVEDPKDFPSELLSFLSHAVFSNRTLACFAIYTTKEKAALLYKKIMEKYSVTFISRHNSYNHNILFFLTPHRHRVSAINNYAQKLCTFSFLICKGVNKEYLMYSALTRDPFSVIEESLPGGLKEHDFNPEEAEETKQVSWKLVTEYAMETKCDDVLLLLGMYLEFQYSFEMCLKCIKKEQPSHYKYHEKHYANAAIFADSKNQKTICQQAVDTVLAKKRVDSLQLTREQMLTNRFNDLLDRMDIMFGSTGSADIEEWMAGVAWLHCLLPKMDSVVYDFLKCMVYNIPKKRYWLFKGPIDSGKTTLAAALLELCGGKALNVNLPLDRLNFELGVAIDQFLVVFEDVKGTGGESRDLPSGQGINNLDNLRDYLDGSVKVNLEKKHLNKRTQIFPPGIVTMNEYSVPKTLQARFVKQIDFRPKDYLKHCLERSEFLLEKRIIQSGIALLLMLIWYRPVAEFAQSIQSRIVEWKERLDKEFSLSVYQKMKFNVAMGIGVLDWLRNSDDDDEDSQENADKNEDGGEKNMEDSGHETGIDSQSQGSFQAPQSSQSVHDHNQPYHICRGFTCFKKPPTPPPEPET

[9] = NIH-3T3 fibroblast cytotoxicity, dose response, cytotoxicity control, cell-based, fluorescence, Alamar Blue, secondary assay (AID 2327); assay type: functional;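 note: NIH-3T3 mouse fibroblasts cultured with fluconazole at 8 µg/mL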
[10] = fluconazole-exposed Candida albicans growth modulators – fluorescence, retest, confirmation (AID 2467); assay type: functional, cell-based
[11] = biological target: T4, Carboxy-terminal domain RNA polymerase II polypeptide A small phosphatase 1 (Homo sapiens, UniProt Q9GZU7); assay: CTDSP1 inhibitors, concentration-response, biochemical, absorbance readout, ultra-high-throughput screen actives (AID 540297); assay type: functional
T4 sequence (Q9GZU7 whole entry): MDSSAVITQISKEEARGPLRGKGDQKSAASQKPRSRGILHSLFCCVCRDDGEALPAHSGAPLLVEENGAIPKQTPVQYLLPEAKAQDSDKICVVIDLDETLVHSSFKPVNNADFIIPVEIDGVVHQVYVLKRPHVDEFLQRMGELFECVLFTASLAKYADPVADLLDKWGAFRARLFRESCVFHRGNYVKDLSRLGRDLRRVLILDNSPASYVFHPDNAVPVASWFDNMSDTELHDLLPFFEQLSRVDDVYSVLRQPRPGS

[12] = biological target: Nonstructural protein 1 (Influenza A virus, UniProt Q194T2); assay type: functional, Influenza A virus (A/California/07/2009(H1N1))
Chain of Nonstructural protein 1 (Q194T2 whole entry): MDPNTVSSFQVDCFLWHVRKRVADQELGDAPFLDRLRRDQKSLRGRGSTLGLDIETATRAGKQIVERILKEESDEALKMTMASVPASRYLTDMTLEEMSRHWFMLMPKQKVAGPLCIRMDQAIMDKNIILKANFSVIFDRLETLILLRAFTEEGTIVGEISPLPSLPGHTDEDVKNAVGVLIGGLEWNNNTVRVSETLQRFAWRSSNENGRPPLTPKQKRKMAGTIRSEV

[13] = biological target: T5, Protein skinhead-1 (Caenorhabditis elegans, UniProt P34707); assay type: functional
T5 sequence (P34707 whole entry): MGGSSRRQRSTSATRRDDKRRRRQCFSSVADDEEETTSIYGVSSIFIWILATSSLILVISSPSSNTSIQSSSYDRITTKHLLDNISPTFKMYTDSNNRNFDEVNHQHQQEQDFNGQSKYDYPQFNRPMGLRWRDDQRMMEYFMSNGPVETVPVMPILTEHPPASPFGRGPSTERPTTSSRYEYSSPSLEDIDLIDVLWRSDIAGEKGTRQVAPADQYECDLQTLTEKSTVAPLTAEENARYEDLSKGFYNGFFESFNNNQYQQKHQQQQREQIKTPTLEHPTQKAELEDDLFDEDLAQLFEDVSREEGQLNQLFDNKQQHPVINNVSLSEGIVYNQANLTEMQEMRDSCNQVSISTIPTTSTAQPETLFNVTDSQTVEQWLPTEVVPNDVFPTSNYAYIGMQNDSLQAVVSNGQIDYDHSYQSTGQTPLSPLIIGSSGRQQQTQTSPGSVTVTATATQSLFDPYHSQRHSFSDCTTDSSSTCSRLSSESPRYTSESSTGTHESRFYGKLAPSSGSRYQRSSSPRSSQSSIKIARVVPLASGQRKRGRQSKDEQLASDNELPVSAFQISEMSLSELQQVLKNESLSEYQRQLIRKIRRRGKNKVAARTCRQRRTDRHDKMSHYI

## CCOc1ccc(-n2cc(-c3ccccc3)c3c(=S)[nH]cnc32)cc1
[1]
  EC50: > 150 µM (not active)
[2]
  IC50: > 66 µM (inactive)
[3]
  IC50: > 66 µM (inactive)

## COc1c(Cl)cc(C(=O)Nc2ccccc2-c2ccccc2)cc1Cl
[4]
  IC50: > 50 µM (not active)

## O=C1CSC(c2cccc(F)c2)N1c1ccccc1 (centres undefined)
[5]
  AC50: 1.22 µM (active)

## CCc1ccc(-c2nc(CSCC(=O)N3CCN(c4ncccn4)CC3)c(C)o2)cc1
[6]
  EC50: 53.6 µM (active)
[7]
  EC50: 29.8 µM (active)

## CCc1cc2c(Nc3ccc(O)cc3)nc(C)nc2s1
[8]
  IC50: 23.7 µM (active)

## Cc1ccc(-c2nc3ccc(Cl)cc3c(=O)n2O)cc1
[9]
  EC50: > 160 µM (inactive)
[10]
  EC50: 1.58 µM (active)

## CSCc1ccc(C(=O)NC(C)c2ccc(-n3ccnc3)cc2)cc1 (centres undefined)
[5]
  AC50: 1.33 µM (active)

## CCOc1c(Br)cc(CNc2ccc(N3CCN(C(C)=O)CC3)cc2)cc1OC
[8]
  IC50: 6.23 µM (active)

## CC1=C(C(=O)c2ccccc2)C(c2ccc(O)cc2)NC(S)=N1 (centres undefined)
[8]
  IC50: > 100 µM (active)

## CCCCNC(=O)COC(=O)c1c2c(nc3ccccc13)CCC2
[11]
  IC50: 9.63 µM (active)

## COc1ccc([N+](=O)[O-])cc1NC(=O)CSc1ccc2ccccc2c1
[4]
  IC50: 2.92 µM (not active)

## CC1CCc2cc(F)ccc2N1C(=O)CSc1n[nH]c2c3ccccc3nc-2n1 (centres undefined)
[6]
  EC50: 19 µM (active)
[7]
  EC50: 22.5 µM (active)

## Cc1nn(-c2ccccc2)c(N2CCCC2)c1/C=N/Nc1ccc(S(=O)(=O)Nc2ccccc2)cc1[N+](=O)[O-]
[6]
  EC50: 6.74 µM (active)
[7]
  EC50: 9.37 µM (active)

## COc1ccc(S(=O)(=O)NCc2ccc3c(c2)cc(C)n3C)cc1
[12]
  IC50: 66.3 µM (active)
[2]
  IC50: > 66 µM (inactive)
[3]
  IC50: > 66 µM (inactive)

## Cc1c(C=O)c2ccccc2n1CC(=O)NC(C)c1ccccc1 (centres undefined)
[4]
  IC50: > 50 µM (not active)

## Cc1cc(C2=NN=C(NC3CC3)SC2)c(C)n1-c1ccccc1
[6]
  EC50: 23.7 µM (active)
[7]
  EC50: 19.5 µM (active)

## CCCOc1ccc(N2C(=O)CC(N(CCc3ccc(OC)cc3)C(=O)c3cccc(F)c3)C2=O)cc1 (centres undefined)
[13]
  IC50: > 100 µM (inactive)

## COc1ccc(Nc2ccc(Cl)cc2)c(C(=O)O)c1
[8]
  IC50: 18 µM (active)

## Cc1cc(NC(=O)CSc2nnc(-c3ccncc3)n2-c2ccc(F)cc2)no1
[13]
  IC50: > 100 µM (inactive)

## O=C(Nc1ccnc(O)n1)c1sc2ccccc2c1Cl
[11]
  IC50: 16.2 µM (active)
